# According to patent publication US20130157973A1, “PHARMACEUTICAL COMPOSITIONS AND METHODS FOR TREATING GASTROINTESTINAL INFECTIONS AND DISORDERS” (priority 2011, published 2013):
# Read-outs that look alike come from different tables or passages of the source.
# Columns and labels:
# [1] = Single-dose pharmacokinetics of Compound B, fasted and fed cohorts; type: in vivo, human; settings: for Cmax / AUC(0-inf) / half-life / Tmax: human, plasma, oral; for Cmax: read-out: Cmax Mean (% CV); for AUC(0-inf): read-out: AUCinf Mean (% CV); for Tmax: read-out: Tmax Median (Q1, Q3)
# Experimental: Table 1 and Table 2 present the PK parameters of Compound B following the administration of a single dose of Compound B in the fasted cohorts and fed cohorts, respectively. Mean maximal plasma concentration values (Cmax) were higher with increasing dose in the fasted treatment groups. Mean maximal plasma concentration values were lower when Compound B (8 mg) was administered with moderate- or high-fat meal or following a high fat-meal than when Compound B was administered under fasting conditions.
# [2] = Phase IIa studies in chronic HCV subjects: safety, neutrophil and lymphocyte counts, liver enzymes; type: in vivo, human; settings: for proportion of subjects with AST elevations / proportion of subjects with ALT elevations: French study, 0.02 mg/kg group
# Experimental: Single center study (France): 6 subjects received 0.01 mg/kg, 11 received 0.02 mg/kg and 6 received placebo.
# Exclusion criteria included clinically meaningful cirrhosis on prior liver biopsy (U.S. study), positive serology for possible autoimmune hepatitis (ANA˜1:640, ASMA>1:320, ALKM antibody>1:320), hepatocellular neoplasia, anemia (<12 g/dL for men, <11 for women), thrombocytopenia (<90,000/μL), leukopenia (<2500 cells/μL), neutropenia (<1500 cells/μL, U.S. study), ALT>1000 U/L (French study) or aspartate aminotransferase (AST) or ALT>500 U/L (U.S. study), bilirubin>1 mg/dL, decompensated liver disease, other liver diseases, positive serology for HIV, positive HBsAg, prior organ transplantation, significant psychiatric disease, alcohol or drug abuse within 12 months, systemic immunomodulatory or investigational therapy within 3 months, and significant cardiac, pulmonary, systemic inflammatory or thyroid disease.
# In the U.S. study, subjects were assigned centrally across centers. Active to placebo assignment was 3:1 for each cohort. Sample sizes were not prospectively powered.
# All subjects were to receive study drug two times per week for 4 weeks. Subjects self-administered study drug at home except on study visits with pharmacokinetic and pharmacodynamic sampling where it was administered in the clinic. […] In the U.S. study, subjects received 0.01 mg/kg of resiquimod.
# (§1) Serum IL-6, IL-1RA, TNF-α and IFN-γ were measured by enzyme-linked immunosorbent assay (Immunotech, Cedex, France) and neopterin by immunoenzymatic assay (Immunotech, Cedex, France). Serum type I IFN levels were determined by bioassay. Serum 2′,5′ oligoadenylate synthetase (2′5′ AS) was measured by radioimmunoassay (Eiken Chemical Co. Ltd., Tokyo, Japan). Serum IL-12 p40 was measured by enzyme-linked immunosorbent assay (R&D Systems, Minneapolis, Minn.) Immunophenotyping of T lymphocytes in the U.S. study was performed at NGI.
# serum HCV RNA = assay: Phase IIa studies: serum HCV RNA by quantitative polymerase chain reaction; type: in vivo, hepatitis C virus
# Experimental: Two randomized, double-blind phase IIa studies of Compound B administered two times per week for 4 weeks. Multicenter study (U.S.): 12 subjects received Compound B 0.01 mg/kg and 4 received placebo. Single center study (France): 6 subjects received 0.01 mg/kg, 11 received 0.02 mg/kg and 6 received placebo.
# Serum HCV RNA was measured by quantitative polymerase chain reaction (NGI). Subjects were categorized as responders (reduction from baseline of ˜2 logs) or non-responders at the end-of-treatment visit (day 29), and at the last follow-up visit (day 113 U.S. study, and day 57 French study).
# IFN-α = assay: Phase IIa studies: serum type I IFN levels by bioassay; type: in vivo, human
# Experimental: as §1, with “Samples for cytokines were obtained at 0, 2, 4, 6, 8, 12 and 24 h after the first dose, prior to dosing at days 8, 15, 22 or 25 (see above regarding pharmacokinetics) and day 29. Serum IL-6,” for “Serum IL-6,”
# [3] = Placebo-controlled single and multiple administration tolerability studies in healthy adults; type: in vivo; settings: single administration study in 48 healthy adults, up to 0.05 mg/kg
# [4] = 0.3 mg, single dose 0.3 mg, Cohort 1, fasted
# [5] = 1 mg, single dose 1 mg, Cohort 2, fasted
# [6] = 2 mg, single dose 2 mg, Cohort 3, fasted
# [7] = 4 mg, single dose 4 mg, Cohort 4, fasted
# [8] = 6 mg, single dose 6 mg, Cohort 5, fasted
# [9] = 8 mg, single dose 8 mg post high-fat meal (4 hours), Cohort 9
# [10] = 8 mg, single dose 8 mg with a high-fat meal, IFE Cohort
# [11] = 8 mg, single dose 8 mg with a moderate-fat meal, Cohort 8
# [12] = 8 mg, single dose 8 mg, Cohort 6, fasted
# [13] = 12 mg, single dose 12 mg, Cohort 7, fasted
# [14] = of the 11 subjects with at least a 1-log reduction at any time
structure (smiles),measurement,setting,value
"CCCCOc1nc(N)c2c(n1)N(Cc1cccc(CN3CCCC3)c1)CC(=O)N2 [Compound B, 4-amino-2-butoxy-8-(3-(pyrrolidin-1-ylmethyl)benzyl)-7,8-dihydropteridin-6(5H)-one]",Mean maximal plasma concentration fed vs fasting,"[1]; 8 mg with moderate- or high-fat meal or following a high-fat meal, vs fasting conditions",lower
same,Cmax,[1]; [4],0.184 ng/mL
same,AUC(0-inf),"[1]; 0.3 mg, single dose 0.3 mg, Cohort 1, fasted, limited terminal phase data, interpret with caution",2.97 ng·h/mL
same,half-life,"[1]; 0.3 mg, single dose 0.3 mg, Cohort 1, fasted, plasma measured only to 24 hours, interpret with caution, read-out: T½ Median (Q1, Q3) (converted)",10.4 h
same,Tmax,[1]; [4],3 h
same,Cmax,[1]; [5],0.44 ng/mL
same,AUC(0-inf),[1]; [5],9.23 ng·h/mL
same,Tmax,[1]; [5],3 h
same,half-life,"[1]; 1 mg, single dose 1 mg, Cohort 2, fasted, read-out: T½ Median (Q1, Q3) (converted)",26.9 h
same,Cmax,[1]; [6],0.633 ng/mL
same,AUC(0-inf),[1]; [6],11.3 ng·h/mL
same,Tmax,[1]; [6],6 h
same,half-life,"[1]; 2 mg, single dose 2 mg, Cohort 3, fasted, read-out: T½ Median (Q1, Q3) (converted)",24.3 h
same,Cmax,[1]; [7],2.93 ng/mL
same,AUC(0-inf),[1]; [7],57.2 ng·h/mL
same,Tmax,[1]; [7],4 h
same,half-life,"[1]; 4 mg, single dose 4 mg, Cohort 4, fasted, read-out: T½ Median (Q1, Q3) (converted)",17.2 h
same,Cmax,[1]; [8],7.26 ng/mL
same,AUC(0-inf),[1]; [8],76.9 ng·h/mL
same,Tmax,[1]; [8],2.5 h
same,half-life,"[1]; 6 mg, single dose 6 mg, Cohort 5, fasted, read-out: T½ Median (Q1, Q3) (converted)",14.7 h
same,AUC(0-inf),[1]; [9],79.5 ng·h/mL
same,Cmax,[1]; [9],4.53 ng/mL
same,Tmax,[1]; [9],5 h
same,half-life,"[1]; 8 mg, single dose 8 mg post high-fat meal (4 hours), Cohort 9, read-out: T½ Median (Q1, Q3) (converted)",20.5 h
same,AUC(0-inf),[1]; [10],71.4 ng·h/mL
same,Cmax,[1]; [10],5.24 ng/mL
same,Tmax,[1]; [10],3 h
same,half-life,"[1]; 8 mg, single dose 8 mg with a high-fat meal, IFE Cohort, read-out: T½ Median (Q1, Q3) (converted)",23.6 h
same,AUC(0-inf),[1]; [11],51.1 ng·h/mL
same,Cmax,[1]; [11],2.04 ng/mL
same,Tmax,[1]; [11],2 h
same,half-life,"[1]; 8 mg, single dose 8 mg with a moderate-fat meal, Cohort 8, read-out: T½ Median (Q1, Q3) (converted)",21.6 h
same,Cmax,[1]; [12],8.34 ng/mL
same,AUC(0-inf),[1]; [12],109 ng·h/mL
same,Tmax,[1]; [12],2.51 h
same,half-life,"[1]; 8 mg, single dose 8 mg, Cohort 6, fasted, read-out: T½ Median (Q1, Q3) (converted)",19.5 h
same,Cmax,[1]; [13],12 ng/mL
same,AUC(0-inf),[1]; [13],140 ng·h/mL
same,Tmax,[1]; [13],1.51 h
same,half-life,"[1]; 12 mg, single dose 12 mg, Cohort 7, fasted, read-out: T½ Median (Q1, Q3) (converted)",16.3 h
same,half-life,"[1]; all groups except the 0.3-mg group, read-out: Median terminal half-life values across groups",14.7 to 26.9 h
same,proportion of subjects with AST elevations,[2]; day 1 (6/11),55%
same,proportion of subjects with ALT elevations,[2]; day 1 (9/11),82%
same,proportion of subjects with AST elevations,[2]; day 29 (1/9),11%
same,proportion of subjects with ALT elevations,[2]; day 29 (5/9),56%
same,ALT and AST levels,"[2]; U.S. study, 0.01 mg/kg",Neither ALT nor AST levels appeared to be affected
same,changes in physical examinations,[2]; both studies,no clinically meaningful changes
same,Clinically relevant changes in CD4+ lymphocyte counts or CD4+/CD8+ lymphocyte ratios,"[2]; human, in vivo",not observed
same,adverse effects,[2]; oral 0.02 mg/kg,adverse effects similar to interferon-alpha
same,subjects with at least a 1-log reduction in HCV levels at any time during the study,serum HCV RNA; 0.01 mg/kg group,five
same,subjects with at least a 1-log reduction in HCV levels at any time during the study,serum HCV RNA; 0.02 mg/kg group,six
same,subjects with maximal reduction in viral levels of at least 1-log,serum HCV RNA; 0.02 mg/kg group,Two
same,subjects with maximal reduction in viral levels of at least 2-logs,serum HCV RNA; 0.02 mg/kg group,three
same,subjects with maximal reduction in viral levels of at least 3-logs,serum HCV RNA; 0.02 mg/kg group,one
same,responders per protocol (2 log reduction) at end-of-treatment visit,"serum HCV RNA; 0.02 mg/kg, day 29, not sustained on follow-up",one
same,subjects whose HCV Rmax occurred at day 29 or after,serum HCV RNA; [14],5 subjects
same,subjects whose HCV Rmax occurred within 48 h after dose 1,serum HCV RNA; [14],6 subjects
same,effect on viral levels,serum HCV RNA; oral 0.02 mg/kg,transiently reduced viral levels
same,serum HCV RNA levels after the first dose,"serum HCV RNA; peaking at about 24 h, trending toward baseline by 48 h",dose-dependent decrease
same,IFN-α Rmax post-dose 1 of individual subject,IFN-α; 0.02 mg/kg subject who discontinued treatment for severe grade flu-like symptoms,3946 IU/mL
same,IFN-α Rmax post-dose 1 of individual subject,IFN-α; 0.02 mg/kg subject who discontinued treatment for severe grade lymphopenia,"15,557 IU/mL"
same,maximum tolerated oral dose,[3],0.03 mg/kg
